Measurements reported in patent US8518932B2, “Oxime azetidine derivatives as sphingosine 1-phosphate (S1P) receptor modulators” (Allergan, Inc., priority 2010, dated 2013).

Target: T1, human S1P1 receptor (Homo sapiens, UniProt P21453)
T1 construct: expressed in transfected cells; membranes used
Test: GTP γ35S binding assay for S1P1 activity
Type: biochemical
Conditions: membranes of cells stably expressing the S1P1 receptor, test compounds 0.08 to 5,000 nM, 30 min at 25° C.
Experimental: Compounds were synthesized and tested for S1P1 activity using the GTP γ^35S binding assay. These compounds may be assessed for their ability to activate or block activation of the human S1P1 receptor in cells stably expressing the S1P1 receptor.
GTP γ^35S binding was measured in the medium containing (mM) HEPES 25, pH 7.4, MgCl2 10, NaCl 100, dithitothreitol 0.5, digitonin 0.003%, 0.2 nM GTP γ^35S, and 5 μg membrane protein in a volume of 150 μl. Test compounds were included in the concentration range from 0.08 to 5,000 nM unless indicated otherwise. Membranes were incubated with 100 μM 5′-adenylylimmidodiphosphate for 30 min, and subsequently with 10 μM GDP for 10 min on ice. Drug solutions and membrane were mixed, and then reactions were initiated by adding GTP γ^35S and continued for 30 min at 25° C. Reaction mixtures were filtered over Whatman GF/B filters under vacuum, and washed three times with 3 mL of ice-cold buffer (HEPES 25, pH7.4, MgCl2 10 and NaCl 100). Filters were dried and mixed with scintillant, and counted for ^35S activity using a β-counter. Agonist-induced GTP γ^35S binding was obtained by subtracting that in the absence of agonist. Binding data were analyzed using a non-linear regression method. In case of antagonist assay, the reaction mixture contained 10 nM S1P in the presence of test antagonist at concentrations ranging from 0.08 to 5000 nM.

T1 sequence (P21453 whole entry): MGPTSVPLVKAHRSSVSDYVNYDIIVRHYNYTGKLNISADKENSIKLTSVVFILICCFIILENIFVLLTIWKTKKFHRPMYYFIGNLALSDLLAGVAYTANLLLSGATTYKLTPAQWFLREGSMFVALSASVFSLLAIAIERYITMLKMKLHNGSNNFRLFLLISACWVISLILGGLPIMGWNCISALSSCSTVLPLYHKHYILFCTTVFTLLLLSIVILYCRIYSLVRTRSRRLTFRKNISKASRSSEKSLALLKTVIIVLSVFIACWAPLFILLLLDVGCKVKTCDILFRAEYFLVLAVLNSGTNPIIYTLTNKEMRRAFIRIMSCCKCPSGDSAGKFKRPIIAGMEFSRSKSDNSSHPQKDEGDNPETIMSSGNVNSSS

Structure (SMILES)	EC50 [nM]
C/C(=N\OCC(Cc1ccc(C)c(C)c1)c1cccc(C)c1)c1ccc(CN2CC(C(=O)O)C2)cc1 (centres unmarked) [Compound 1, 1-(4-{(1E)-N-[2-(3-methylphenyl)-3-(3,4-dimethylphenyl)propoxy]ethanimidoyl}benzyl)azetidine-3-carboxylic acid]	16.5
C/C(=N\OCC(Cc1ccc(C)c(C)c1)c1cccc(Cl)c1)c1ccc(CN2CC(C(=O)O)C2)cc1 (centres unmarked) [Compound 2, 1-(4-{(1E)-N-[2-(3-chlorophenyl)-3-(3,4-dimethylphenyl)propoxy]ethanimidoyl}benzyl)azetidine-3-carboxylic acid]	9.05
C/C(=N\OCc1ccc(CN2CC(C(=O)O)C2)cc1)C(Cc1ccc(C)c(C)c1)c1cccc(Cl)c1 (centres unmarked) [Compound 3, 1-{4-[({[(1E)-2-(3-chlorophenyl)-3-(3,4-dimethylphenyl)-1-methylpropylidene]amino}oxy)methyl]benzyl}azetidine-3-carboxylic acid]	230
C/C(=N\OCc1ccc(CN2CC(C(=O)O)C2)cc1)C(Cc1ccc(C)c(C)c1)c1cc(F)cc(F)c1 (centres unmarked) [Compound 4, 1-{4-[({[(1E)-2-(3,5-difluorophenyl)-3-(3,4-dimethylphenyl)-1-methylpropylidene]amino}oxy)methyl]benzyl}azetidine-3-carboxylic acid]	17.5
C/C(=N\OCC(Oc1ccc(C)c(C)c1)c1cccc(Cl)c1)c1ccc(CN2CC(C(=O)O)C2)cc1 (centres unmarked) [Compound 8, 1-(4-{(1E)-N-[2-(3-chlorophenyl)-2-(3,4-dimethylphenoxy)ethoxy]ethanimidoyl}benzyl)azetidine-3-carboxylic acid]	163
